Reference: article PMC12813973, “Consequences of Peptide Macrocyclization Revealed by Virus-Inspired β‑Hairpin Mimetics” (ACS Chemical Biology, 2025)
Like-named read-outs stand apart in the source and are kept apart here.

What was measured:
Type in all cases: binding
STAT1 [1] = molecular target: T1, STAT1 (Homo sapiens, UniProt P42224); experiment: Fluorescence polarization competition assay with fluorescein-labelled pIFNGR1 docking site peptide probe; conditions: 10 nM fluorescein pIFNGR1 probe, STAT1 1.5 μM, 20 mM Tris pH 8.0, 300 mM NaCl, 0.1% Tween-20, 0.5 mM TCEP, 2.5% DMSO, room temperature; four parameter logistic fit; read-out: IC50 (FP competition, pIFNGR1 probe displacement)
T1 construct: full-length STAT1 (Uniprot #P42224-1) was expressed in E. coli; His tag (pEXP-NHis vector) (N); made in house; host or cells: E. coli T7 Express
T1 sequence (P42224 1-750): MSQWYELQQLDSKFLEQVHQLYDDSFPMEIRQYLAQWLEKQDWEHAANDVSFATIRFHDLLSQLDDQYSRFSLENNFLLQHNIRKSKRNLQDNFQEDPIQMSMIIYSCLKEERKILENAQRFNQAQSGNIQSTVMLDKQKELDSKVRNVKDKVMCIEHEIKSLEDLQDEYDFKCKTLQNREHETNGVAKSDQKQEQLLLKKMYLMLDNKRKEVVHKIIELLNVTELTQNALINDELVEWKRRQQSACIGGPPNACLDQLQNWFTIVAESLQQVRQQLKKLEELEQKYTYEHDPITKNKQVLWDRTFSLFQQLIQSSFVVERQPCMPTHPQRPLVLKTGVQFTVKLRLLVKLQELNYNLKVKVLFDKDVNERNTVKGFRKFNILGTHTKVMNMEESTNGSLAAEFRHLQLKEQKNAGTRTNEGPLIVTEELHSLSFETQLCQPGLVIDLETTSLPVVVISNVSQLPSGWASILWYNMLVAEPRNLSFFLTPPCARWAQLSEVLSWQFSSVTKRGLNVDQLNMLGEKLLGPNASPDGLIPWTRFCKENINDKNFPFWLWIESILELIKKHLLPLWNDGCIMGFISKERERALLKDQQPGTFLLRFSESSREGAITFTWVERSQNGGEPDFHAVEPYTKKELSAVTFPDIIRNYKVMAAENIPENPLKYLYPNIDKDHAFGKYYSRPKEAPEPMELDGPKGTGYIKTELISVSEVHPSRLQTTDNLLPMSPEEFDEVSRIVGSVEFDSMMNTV

STAT3 = molecular target: T2, STAT3 (Homo sapiens, UniProt P40763); experiment: biochemical; conditions: for KD: analyte 10 µM (1, 3, 5) or 0.5 µM (4, 6), n.b. – no binding observed
T2 construct: STAT3: the gene encoding full-length STAT3 was codon optimised for expression in; MBP (pEXP-MBP vector) (cleaved yes); His tag (IMAC capture, removed with the fusion by TEV and reverse IMAC) (cleaved yes); made in house; host or cells: E. coli T7 Express
Experimental: In such PPIs, the bulk of the binding energy contribution typically stems from backbone interactions, whereas binding specificity is fine-tuned by side-chain contacts. […] We evaluated the binding kinetics of peptides to full-length STAT3 using GCI.
(§1) Grating coupled interferometry (GCI)
(§2) GCI experiments were performed on a Creoptix WaveDELTA instrument (Malvern Panalytical). Full-length STAT1 or STAT3 were immobilised on a 4PCH chip (Malvern Panalytical #4PCH-03) to a density 2000-8000 pg/mm2 using EDC/NHS activation followed by amine coupling. Briefly, proteins (500 nM) were applied onto an activated chip in 10 mM MES pH 6.5, 20 mM NaCl, after which the chip surface was passivated with 1M ethanolamine, pH 8.0.
(§3) The kinetic measurements were perfor med using 20 mM HEPES pH 7.5, 300 mM NaCl, 0.01% Tween-20, 0.0005% DMSO as running buffer. Peptides were tested at 0.5 or 10 μM concentration using the waveRAPID kinetics experiment with the tight binder or intermediate binder mode, respectively.[4] Sensorgrams were fitted in the waveControl software (Malven Panalytical) using the 1:1 kinetic model. […]
GCI sensorgrams depicting RAPID kinetics measurements and fitted kinetic models for peptide binding to full-length STAT3 immobilised on a polycarboxylate hydrogel chip (4PCH). Peptides were applied at 0.5 or 10 μM concentration using the medium or tight binders pulse sequence. The peptides that show negligible Rmax values at 10 μM analyte concentration were classified as non-binding.
(1 picture or pasted object on this page, not shown here)

STAT1 [2] = molecular target: T1, STAT1; experiment: Grating-coupled interferometry (GCI) waveRAPID kinetics, immobilised full-length STAT1; conditions: for kd / kon at 0.5 µM: analyte 0.5 µM; for kon at 0.5 µM: read-out: ka
Text: Understanding the molecular determinants of kinetic rate constants of binding (k a, k d) can aid the design of pharmacological probes with longer target engagement, which is beneficial for drug efficacy and decreased toxicity. , We characterized the binding kinetics of 018-derived macrocycles by using grating-coupled interferometry (GCI). We used waveRAPID, a regeneration-free kinetic binding assay that applies sequential analyte pulses of increasing duration onto a GCI biosensor surface with an immobilized target (Figures A, and S3,S4, Table S2).
as §1, §2, §3

[3] = replicate 1 (first listed run, Table S2)
[4] = replicate 2 (second listed run, Table S2)
[5] = replicate 3 (third listed run, Table S2)

T2 sequence (P40763 whole entry, species assumed, the tested form may be a part): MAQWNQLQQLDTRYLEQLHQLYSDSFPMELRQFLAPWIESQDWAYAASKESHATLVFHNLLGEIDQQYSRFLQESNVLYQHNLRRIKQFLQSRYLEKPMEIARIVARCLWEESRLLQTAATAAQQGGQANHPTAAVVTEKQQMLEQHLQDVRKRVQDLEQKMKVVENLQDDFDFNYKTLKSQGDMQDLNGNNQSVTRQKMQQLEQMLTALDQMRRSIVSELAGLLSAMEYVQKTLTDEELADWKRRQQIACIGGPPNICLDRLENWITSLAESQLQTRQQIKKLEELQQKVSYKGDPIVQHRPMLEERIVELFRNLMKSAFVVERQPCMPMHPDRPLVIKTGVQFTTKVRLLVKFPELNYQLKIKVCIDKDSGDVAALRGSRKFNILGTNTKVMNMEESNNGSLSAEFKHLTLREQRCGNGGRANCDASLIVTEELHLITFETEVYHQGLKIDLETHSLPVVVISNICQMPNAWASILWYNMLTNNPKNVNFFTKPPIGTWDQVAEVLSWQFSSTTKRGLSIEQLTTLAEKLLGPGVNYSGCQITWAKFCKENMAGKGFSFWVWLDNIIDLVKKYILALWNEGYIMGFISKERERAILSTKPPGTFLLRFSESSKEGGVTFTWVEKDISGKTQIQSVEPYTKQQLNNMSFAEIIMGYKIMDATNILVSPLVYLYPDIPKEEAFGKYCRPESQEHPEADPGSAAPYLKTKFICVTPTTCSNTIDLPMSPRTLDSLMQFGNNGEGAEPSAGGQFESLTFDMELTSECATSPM

For `CC[C@H](C)[C@H](NC(=O)[C@H](Cc1ccccc1)NC(=O)[C@@H](NC(=O)[C@H](CO)NC(=O)[C@H](Cc1c[nH]c2ccccc12)NC(=O)[C@H](CCSC)NC(C)=O)C(C)C)C(=O)N[C@@H](Cc1c[nH]cn1)C(=O)NCC(=O)N[C@@H](Cc1c[nH]cn1)C(=O)N[C@@H](CC(=O)O)C(=O)NCC(=O)N[C@@H](CO)C(=O)N[C@@H](CC(N)=O)C(=O)N[C@@H](CCCCN)C(=O)NCC(=O)N[C@@H](CO)C(=O)N[C@@H](CCCCN)C(=O)N[C@H](C(=O)N[C@@H](Cc1ccc(O)cc1)C(=O)N[C@H](C(N)=O)[C@@H](C)O)[C@@H](C)O` [Peptide 1], the IC50 (STAT1 [1]) was 4300 nM, the KD (STAT3; [3]) was “n.b” and the KD (STAT3; [4]) was “n.b”. The “STAT3 binding (GCI), in words” value (STAT3; full-length STAT3, negligible Rmax at 10 μM classified as non-binding) was “not detected”, the Kd (STAT1 [2]; 20 mM HEPES pH 7.5, 300 mM NaCl, 0.01% Tween-20, 1:1 kinetic model, average of 2–4 technical replicates ± SD, SD) was 85.8 ± 6.4 nM and the residence time (STAT1 [2]; STAT1, GCI, read-out: target residence time τ (τ = 1/kd) (converted)) was 0.8 min. It also gave a kd (STAT1 [2]; [3]) of 0.0221 s⁻¹, a kon at 0.5 µM (STAT1 [2]; [3]) of 241000 M⁻¹ s⁻¹ and a kd (STAT1 [2]; [4]) of 0.0172 s⁻¹. The kon at 0.5 µM (STAT1 [2]; [4]) was 217000 M⁻¹ s⁻¹, the kd (STAT1 [2]; [5]) was 0.0226 s⁻¹ and the kon at 0.5 µM (STAT1 [2]; [5]) was 262000 M⁻¹ s⁻¹.
